# Assays:
# DPP-IV = DPP-IV (Homo sapiens, UniProt P27487); assay: Tolerance of GLP-1 and its analogues to DPP-IV (RP-HPLC remaining peak area); type: in vitro ADME; conditions: peptide 25 μM, DPP-IV 0.5 ng/μL, 37° C.; for Remaining peak area (%)/DPP-IV: 0.0 h; for remaining at 0.5 h, 25 μM / remaining at 2 h, 25 μM / remaining at 4 h, 25 μM / remaining at 8 h, 25 μM / remaining at 12 h, 25 μM: isolated DPP-IV enzyme in buffer, pH 8
# Protocol: (§1) Mix by centrifugation at 8000 rpm for 30 seconds.
# (2) Arrange a certain volume of 0.005 μg/μL DPP-IV solution in another sterile EP.
# trypsin = biological target: T1, trypsin (Bos taurus, UniProt P00760); assay: in vitro; conditions: isolated enzyme trypsin, pH 7.8
# T1 sequence (P00760 24-246): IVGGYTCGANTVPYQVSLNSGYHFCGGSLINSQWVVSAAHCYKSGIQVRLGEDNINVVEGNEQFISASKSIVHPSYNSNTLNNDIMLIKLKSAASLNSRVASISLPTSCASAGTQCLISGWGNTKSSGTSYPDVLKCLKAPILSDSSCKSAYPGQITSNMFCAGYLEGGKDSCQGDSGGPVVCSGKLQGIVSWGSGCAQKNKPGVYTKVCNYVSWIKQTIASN
# Method in brief: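 Remaining RP-HPLC peak area tracks undigested peptide over time. Samples were quenched with 10% TFA at time points between 1.5 and 60 min during 37 °C digestion. Trypsin was added from a 0.05 μg/μL solution after 5 min of thermal equilibration.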
# [1] = Stability of GLP-1 and its analogues in human serum; conditions: 25% (v/v) human serum; for Remaining peak area (%)/human serum: 0.0 h, peptide 0.03 mM, 37° C.; for remaining at 0.5 h, 0.03 mM / remaining at 2 h, 0.03 mM / remaining at 4 h, 0.03 mM / remaining at 8 h, 0.03 mM / remaining at 12 h, 0.03 mM: human, pH 7
# Protocol: The amount of the prototype peptide at 0 h was taken as 100%. At different time point, 100 μL aliquots was taken out, and 300 μL precooled anhydrous methanol was added to terminate the reaction. The remaining percentage (%) of the peptide relative to the prototype peptide at that time point was analyzed by reverse phase high performance liquid chromatography. The experiment was performed with three replicates, and data were expressed as “mean±standard deviation”. The sample was subjected to high-speed centrifugation, supernatant extraction, and freeze drying, followed by dissolution in 50% (v/v) methanol/water solution, and analyzed by reverse phase high performance liquid chromatography. The experiment was performed with three replicates, and data were expressed as “mean±standard deviation”.
# Invert and mix thoroughly, then leave at −20° C. overnight. At the same time, take three sterile EP tubes and add 25 μL of human serum, 75 μL of 50 mM Tris-HCl buffer (pH7.0), and 300 μL of pre-cold absolute methanol. Invert and mix thoroughly, then leave at −20° C. overnight as a negative control, so as to eliminate the interference of proteins or peptides contained in human serum at the peak time of the target peptide after methanol precipitation.
# Arrange a certain volume of human serum in another sterile EP. Incubate the EP tubes containing peptides and serum at 37° C. for 10 min, and add 137.5 μL of human serum to each EP tube containing peptides and mix well. […] Start timing and remove 100 μL of reaction solution at 0.5, 2.0, 4.0, 8.0, and 12.0 h later, respectively. Add 300 μL of pre-cold absolute methanol. Invert and mix thoroughly, then leave at −20° C. overnight. […] There are three replicates at each time point, and the peak area of the peptide at each time point is detected using reverse phase high-performance liquid chromatography (RP-HPLC). The ratio of the remaining peak area of the sample at detection time T (h) to the peak area of the prototype peptide at 0 h is calculated as the remaining percentage (%) of the peptide.
# chymotrypsin = chymotrypsin (Bos taurus, UniProt P00766); assay: in vitro; conditions: isolated enzyme chymotrypsin, pH 7.8, Remaining peak area (%)/chymotrypsin
# Method in brief: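 RP-HPLC peak area tracked intact peptide after 37 °C digestion with chymotrypsin (0.05 μg/μL solution, 5 min preincubation). Samples were withdrawn at 1.5-60.0 min and stopped with 10% TFA.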
# NEP24.11 = NEP24.11 (Homo sapiens, UniProt P08473); assay: Tolerance of GLP-1 and its analogues to NEP24.11 (RP-HPLC remaining peak area); type: in vitro ADME; conditions: peptide 30 μM, NEP24.11 1.0 ng/μL, 37° C.; for Remaining peak area (%)/NEP24.11: 0.0 h; for remaining at 0.5 h, 30 μM / remaining at 2 h, 30 μM / remaining at 4 h, 30 μM / remaining at 8 h, 30 μM: isolated NEP24.11 enzyme in buffer; for remaining at 0.5 h, 30 μM: pH 7.4, 0.5 h; for remaining at 2 h, 30 μM: pH 7.4, 2.0 h; for remaining at 4 h, 30 μM: pH 7.4, 4.0 h; for remaining at 8 h, 30 μM: pH 7.4, 8.0 h, read-out: Remaining peak area (%)/NEP24.11
# NEP24.11, sequence (P08473 whole entry): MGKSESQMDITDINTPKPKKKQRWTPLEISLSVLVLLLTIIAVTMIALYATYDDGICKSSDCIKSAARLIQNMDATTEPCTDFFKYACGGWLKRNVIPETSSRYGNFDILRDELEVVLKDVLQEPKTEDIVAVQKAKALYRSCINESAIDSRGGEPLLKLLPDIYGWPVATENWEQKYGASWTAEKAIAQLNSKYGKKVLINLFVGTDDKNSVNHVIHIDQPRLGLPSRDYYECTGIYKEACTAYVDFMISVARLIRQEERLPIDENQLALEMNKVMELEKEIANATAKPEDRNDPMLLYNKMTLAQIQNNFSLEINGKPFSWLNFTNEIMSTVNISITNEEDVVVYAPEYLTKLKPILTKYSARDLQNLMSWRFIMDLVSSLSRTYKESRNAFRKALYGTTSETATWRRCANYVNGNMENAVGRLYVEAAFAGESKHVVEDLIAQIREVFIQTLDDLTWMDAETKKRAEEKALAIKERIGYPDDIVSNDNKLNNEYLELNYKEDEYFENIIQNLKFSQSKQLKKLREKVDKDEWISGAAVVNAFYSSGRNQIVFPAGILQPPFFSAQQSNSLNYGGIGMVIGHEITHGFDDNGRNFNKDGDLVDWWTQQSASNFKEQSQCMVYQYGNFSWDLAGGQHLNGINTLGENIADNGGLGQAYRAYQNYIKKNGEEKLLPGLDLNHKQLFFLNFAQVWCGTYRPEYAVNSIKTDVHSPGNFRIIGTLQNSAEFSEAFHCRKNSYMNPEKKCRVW
# Protocol: as §1
# Arrange a certain volume of 0.04 μg/μL NEP24.11 enzyme solution in another sterile EP.
# DPP-IV, sequence (P27487 whole entry, species assumed): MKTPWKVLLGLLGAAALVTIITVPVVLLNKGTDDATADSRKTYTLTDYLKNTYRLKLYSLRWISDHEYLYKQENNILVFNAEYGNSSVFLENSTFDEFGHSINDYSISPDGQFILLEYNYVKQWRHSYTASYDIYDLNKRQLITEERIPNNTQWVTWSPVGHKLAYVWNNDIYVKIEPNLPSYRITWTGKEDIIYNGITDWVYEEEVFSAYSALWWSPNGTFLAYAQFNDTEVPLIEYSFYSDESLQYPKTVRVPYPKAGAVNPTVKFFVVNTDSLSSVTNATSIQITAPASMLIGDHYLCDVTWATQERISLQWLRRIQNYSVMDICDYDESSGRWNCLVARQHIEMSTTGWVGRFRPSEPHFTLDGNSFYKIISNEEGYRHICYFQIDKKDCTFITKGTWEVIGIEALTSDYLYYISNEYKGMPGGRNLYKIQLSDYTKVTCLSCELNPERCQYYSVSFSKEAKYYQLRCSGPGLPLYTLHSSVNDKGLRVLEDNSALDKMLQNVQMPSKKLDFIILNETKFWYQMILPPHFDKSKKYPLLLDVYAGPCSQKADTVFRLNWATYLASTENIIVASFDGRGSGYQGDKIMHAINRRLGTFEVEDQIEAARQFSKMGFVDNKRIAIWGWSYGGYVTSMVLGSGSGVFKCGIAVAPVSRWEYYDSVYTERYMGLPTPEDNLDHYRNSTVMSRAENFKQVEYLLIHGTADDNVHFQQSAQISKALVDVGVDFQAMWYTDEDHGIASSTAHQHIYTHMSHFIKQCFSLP
SMILES,Remaining peak area (%)/DPP-IV (DPP-IV) [%],"remaining at 0.5 h, 25 μM (DPP-IV) [%]","remaining at 2 h, 25 μM (DPP-IV) [%]","remaining at 4 h, 25 μM (DPP-IV) [%]","remaining at 8 h, 25 μM (DPP-IV) [%]","remaining at 12 h, 25 μM (DPP-IV) [%]","remaining at 0.025 h, 60 μM (trypsin) [%]","remaining at 0.05 h, 60 μM (trypsin) [%]","remaining at 0.075 h, 60 μM (trypsin) [%]","remaining at 0.1 h, 60 μM (trypsin) [%]","remaining at 0.15 h, 60 μM (trypsin) [%]","remaining at 0.25 h, 60 μM (trypsin) [%]","remaining at 0.5 h, 60 μM (trypsin) [%]","remaining at 1 h, 60 μM (trypsin) [%]",Remaining peak area (%)/human serum [1] [%],serum stability (in words) [1],"remaining at 0.5 h, 0.03 mM [1] [%]","remaining at 2 h, 0.03 mM [1] [%]","remaining at 4 h, 0.03 mM [1] [%]","remaining at 8 h, 0.03 mM [1] [%]",further results
CC[C@H](C)[C@H](NC(=O)[C@H](Cc1ccccc1)NC(=O)[C@H](CCC(=O)O)NC(=O)[C@H](CCCCN)NC(=O)[C@H](C)NC(=O)[C@H](C)NC(=O)[C@H](CCC(N)=O)NC(=O)CNC(=O)[C@H](CCC(=O)O)NC(=O)[C@H](CC(C)C)NC(=O)[C@H](Cc1ccc(O)cc1)NC(=O)[C@H](CO)NC(=O)[C@H](CO)NC(=O)[C@@H](NC(=O)[C@H](CC(=O)O)NC(=O)[C@H](CO)NC(=O)[C@@H](NC(=O)[C@H](Cc1ccccc1)NC(=O)[C@@H](NC(=O)CNC(=O)[C@H](CCC(=O)O)NC(=O)[C@H](C)NC(=O)[C@H](Cc1c[nH]cn1)NC(=O)CNC(=O)CNC(=O)[C@@H](NC(=O)[C@@H]1CCCN1C(=O)[C@@H](NC(=O)CN)[C@@H](C)CC)[C@@H](C)CC)[C@@H](C)O)[C@@H](C)O)C(C)C)C(=O)N[C@@H](C)C(=O)N[C@@H](Cc1c[nH]c2ccccc12)C(=O)N[C@@H](CC(C)C)C(=O)N[C@H](C(=O)N[C@@H](CCCCN)C(=O)NCC(=O)N[C@@H](CCCNC(=N)N)C(=O)NCC(=O)NCC(=O)N[C@@H](CCCCN)C(=O)NCC(=O)N[C@H]1CSSC[C@@H](C(=O)N[C@@H](Cc2ccccc2)C(=O)O)NC(=O)[C@H]([C@@H](C)CC)NC(=O)[C@@H]2CCCN2C(=O)[C@@H]2CCCN2C(=O)[C@H]([C@@H](C)CC)NC(=O)[C@H](CO)NC(=O)[C@H](CCCCN)NC(=O)[C@H]([C@@H](C)O)NC(=O)[C@H](C)NC(=O)[C@H](CCCNC(=N)N)NC(=O)CNC1=O)C(C)C [D-GLP-1-BT9],100.0 ± 0.0,101 ± 1.2,98.7 ± 0.6,98.8 ± 2.3,100 ± 6.5,94 ± 2,90.3 ± 1.9,92.2 ± 3.7,97.3 ± 1,94 ± 1.5,94.9 ± 1.8,88.7 ± 3,90.8 ± 3.6,88.4 ± 3.9,100.0 ± 0.0,good serum stability,80.4 ± 4,53.6 ± 7.6,46.5 ± 3.5,7.2 ± 1.3,"remaining at 12 h, 0.03 mM [1]: 9.1 ± 3.9%; remaining at 0.025 h, 60 μM (chymotrypsin): 54.9 ± 3.8%; remaining at 0.05 h, 60 μM (chymotrypsin): 43.3 ± 7%; remaining at 0.075 h, 60 μM (chymotrypsin): 34.5 ± 7.4%; remaining at 0.1 h, 60 μM (chymotrypsin): 27.1 ± 2.9%; remaining at 0.15 h, 60 μM (chymotrypsin): 17.4 ± 4.9%; Remaining peak area (%)/NEP24.11 (NEP24.11): 100.0 ± 0.0%; remaining at 0.5 h, 30 μM (NEP24.11): 88.4 ± 2.3%; remaining at 2 h, 30 μM (NEP24.11): 79.3 ± 2.6%; remaining at 4 h, 30 μM (NEP24.11): 69.8 ± 2.6%; remaining at 8 h, 30 μM (NEP24.11): 58.6 ± 0.7%"
CC[C@H](C)[C@H](NC(=O)[C@H](Cc1ccccc1)NC(=O)[C@H](CCC(=O)O)NC(=O)[C@H](CCCCN)NC(=O)[C@H](C)NC(=O)[C@H](C)NC(=O)[C@H](CCC(N)=O)NC(=O)CNC(=O)[C@H](CCC(=O)O)NC(=O)[C@H](CC(C)C)NC(=O)[C@H](Cc1ccc(O)cc1)NC(=O)[C@H](CO)NC(=O)[C@H](CO)NC(=O)[C@@H](NC(=O)[C@H](CC(=O)O)NC(=O)[C@H](CO)NC(=O)[C@@H](NC(=O)[C@H](Cc1ccccc1)NC(=O)[C@@H](NC(=O)CNC(=O)[C@H](CCC(=O)O)NC(=O)[C@H](C)NC(=O)[C@H](Cc1c[nH]cn1)NC(=O)CNC(=O)CNC(=O)[C@@H](NC(=O)[C@@H]1CCCN1C(=O)[C@@H](NC(=O)CNC(=O)CNC(=O)[C@H](Cc1ccccc1)NC(=O)[C@@H]1CSSC[C@H](N)C(=O)NCC(=O)N[C@@H](CCCNC(=N)N)C(=O)N[C@@H](C)C(=O)N[C@@H]([C@@H](C)O)C(=O)N[C@@H](CCCCN)C(=O)N[C@@H](CO)C(=O)N[C@@H]([C@@H](C)CC)C(=O)N2CCC[C@H]2C(=O)N2CCC[C@H]2C(=O)N[C@@H]([C@@H](C)CC)C(=O)N1)[C@@H](C)CC)[C@@H](C)CC)[C@@H](C)O)[C@@H](C)O)C(C)C)C(=O)N[C@@H](C)C(=O)N[C@@H](Cc1c[nH]c2ccccc12)C(=O)N[C@@H](CC(C)C)C(=O)N[C@H](C(=O)N[C@@H](CCCCN)C(=O)NCC(=O)N[C@@H](CCCNC(=N)N)C(=O)NCC(=O)NCC(=O)N[C@@H](CCCCN)C(=O)O)C(C)C [BT9-D-GLP-1],100.0 ± 0.0,81.1 ± 1,77.9 ± 2.9,79.1 ± 1.3,78.8 ± 0.6,72.4 ± 1.9,76.6 ± 3,76.7 ± 9.1,77 ± 2.4,79.2 ± 3.1,80.2 ± 1,79.1 ± 2.2,75.8 ± 3.8,77.7 ± 0.5,100.0 ± 0.0,good serum stability,65.6 ± 14.7,38.5 ± 13.3,28,13.7,"remaining at 12 h, 0.03 mM [1]: 19.6 ± 1.2%; remaining at 0.025 h, 60 μM (chymotrypsin): 54.9 ± 6.6%; remaining at 0.075 h, 60 μM (chymotrypsin): 28.7 ± 2.4%; remaining at 0.1 h, 60 μM (chymotrypsin): 19.2 ± 1.3%; remaining at 0.15 h, 60 μM (chymotrypsin): 9 ± 0.9%; Remaining peak area (%)/NEP24.11 (NEP24.11): 100.0 ± 0.0%; remaining at 0.5 h, 30 μM (NEP24.11): 79.8 ± 3.5%; remaining at 2 h, 30 μM (NEP24.11): 60.2 ± 1.8%; remaining at 4 h, 30 μM (NEP24.11): 56.1 ± 3.4%; remaining at 8 h, 30 μM (NEP24.11): 48.4 ± 1.4%"
